Source: US11945786B2, “Compounds, devices, and uses thereof” (SIGILON THERAPEUTICS, INC., priority 2016, dated 2024)

What follows are compounds tested on Macrophage cell lines (assay: In vitro macrophage adhesion assay (Example 8)). Settings: compound conjugated to NHS-activated 96 well plate; 50000 cells per well, 37 degrees Celsius, one hour; averaged across eight wells; normalized PEG750=0, Fibronectin=100.
Type: cell-based
Description: Exemplary compounds of the invention were prepared at a concentration of 0.1M in a 0.1M bicarbonate buffer (pH 8.2) containing 25% v/v DMSO. Control solutions of 0.1M PEG750-amine and 0.01% fibronectin were prepared in 0.1M bicarbonate buffer (pH 8.2).
Each small molecule amine solution (100 μL) was pipetted into eight wells of an NHS-activated 96 well plate and incubated 2 hours at room temperature. Each plate consisted of two lanes spiked with the two control solutions and ten lanes spiked with test molecule solutions. The test wells were rinsed once with 200 μL 0.1M bicarbonate buffer (pH 8.2) containing 25% v/v DMSO followed by three washes with 200 μL Hyclone™ water. The control wells were rinsed with 0.1M bicarbonate buffer (pH 8.2) followed by three 200 μL Hyclone™ water washes. Plates were dried at room temperature in a sterile hood and stored at 4-8° C. until use.
Macrophage cell lines were plated onto 96 well plates, 50000 cells per well, and incubated at 37 degrees Celsius for one hour. Plates were then placed at a 45-degree angle and washed by applying fluid shear 5 times. Non-adherent and adherent cells were then separated and treated with a Cell titer-glo kit to quantify the number of live cells. Live cells were detected using luminescence-based plate reader measurements. The resulting cell adhesion values for each small molecule amine was averaged across the eight wells and standard deviations calculated. The average cell adhesion value for each small molecule was normalized relative to the averages for the two controls on each plate: PEG750=0, Fibronectin (FN)=100. Small molecule normalized value=(SM-PEG750)/(FN-PEG750). Results are expressed as a percentage of cells adhered on the plates. % Percent adherent cells=(Luminescence of adhered cells)/(Luminescence of adhered+non-adhered cells). In this table, “A” represents a cell adhesion value of <0% to about 10%; “B” represents a cell adhesion value of 10% to about 50%; and “C” represents a cell adhesion value of 50% to 100%.
For Fibronectin [reference compound], the “cell adhesion value (percentage of cells adhered on the plates)” value was “C (a cell adhesion value of 50% to 100%)”.
For NCCOCCOCCOCCn1cc(CN2CCS(=O)(=O)CC2)nn1 [Compound 3037, 4-((1-(2-(2-(2-(2-aminoethoxy)ethoxy)ethoxy)ethyl)-1H-1,2,3-triazol-4-yl)methyl)thiomorpholine 1,1-dioxide], the “cell adhesion value (percentage of cells adhered on the plates)” value was “A (a cell adhesion value of <0% to about 10%)”.
With C=CC(=O)NCc1ccc(-n2cc(COC3CCCCO3)nn2)cc1 (stereo not drawn) [Compound 3040, N-(4-(4-(((tetrahydro-2H-pyran-2-yl)oxy)methyl)-1H-1,2,3-triazol-1-yl)benzyl)acrylamide] the “cell adhesion value (percentage of cells adhered on the plates)” value was “C (a cell adhesion value of 50% to 100%)”.
